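Results reflect a 48-hour exposure of cells in 96-well plates to compound at five concentrations. GI50 is the concentration that inhibits growth by half.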 Active and inactive are the calls of the source. No stated cut-off is given here; in the data, active = GI50 up to about 1.1 µM and inactive = higher.
Columns and labels:
Assay in all cases: DTP human tumour cell line panel, 48 h
T47D = system: T47D
SR = system: SR
COLO 205 = system: COLO 205
UACC-257 = system: UACC-257
NCI-H23 = system: NCI-H23
SNB-19 = system: SNB-19
SK-MEL-5 = system: SK-MEL-5
NCI-H460 = system: NCI-H460
UACC-62 = system: UACC-62
RPMI-8226 = system: RPMI-8226
RXF 393 = system: RXF 393
KM12 = system: KM12
U-251 = system: U-251
SF-268 = system: SF-268
HCT-116 = system: HCT-116
UO-31 = system: UO-31
SK-OV-3 = system: SK-OV-3
SK-MEL-28 = system: SK-MEL-28
IGROV-1 = system: IGROV-1
Malme-3M = system: Malme-3M

SMILES | GI50 (T47D) | GI50 (SR) | GI50 (COLO 205) | GI50 (UACC-257) | GI50 (NCI-H23) | GI50 (SNB-19) | GI50 (SK-MEL-5) | GI50 (NCI-H460) | GI50 (UACC-62) | GI50 (RPMI-8226) | GI50 (RXF 393) | GI50 (KM12) | GI50 (U-251) | GI50 (SF-268) | GI50 (HCT-116) | GI50 (UO-31) | GI50 (SK-OV-3) | GI50 (SK-MEL-28) | GI50 (IGROV-1) | GI50 (Malme-3M)
C=C[C@H]1CN2CCc3c([nH]c4c([C@@H]5CCCN5C)c(O)ccc34)[C@@H]2C[C@@H]1C[C@H]1c2[nH]c3ccccc3c2CCN1C | 1.48 µM (inactive) | 0.253 µM (active) | 1.26 µM (inactive) | 3.18 µM (inactive) | 1.85 µM (inactive) | 1.3 µM (inactive) | 1.66 µM (inactive) | 1.49 µM (inactive) | 1.68 µM (inactive) | 0.35 µM (active) | 0.215 µM (active) | 1.41 µM (inactive) | 1.49 µM (inactive) | 1.48 µM (inactive) | 0.239 µM (active) | 1.08 µM (active) | 1.62 µM (inactive) | 1.55 µM (inactive) | 1.31 µM (inactive) | –
S=C(NCc1ccccn1)N/N=C/c1ccccn1 | < 0.01 µM (active) | < 0.01 µM (active) | < 0.01 µM (active) | < 0.01 µM (active) | < 0.01 µM (active) | 0.726 µM (active) | 0.0184 µM (active) | 0.0556 µM (active) | < 0.0181 µM (active) | < 0.01 µM (active) | < 0.0378 µM (active) | < 0.01 µM (active) | – | 0.0214 µM (active) | < 0.01 µM (active) | < 0.0331 µM (active) | – | 0.518 µM (active) | < 0.01 µM (active) | 0.614 µM (active)
O=S(=O)(OI(O)CC(F)(F)F)C(F)(F)F | > 100 µM (inactive) | > 100 µM (inactive) | > 100 µM (inactive) | > 100 µM (inactive) | > 100 µM (inactive) | – | > 100 µM (inactive) | > 100 µM (inactive) | > 100 µM (inactive) | > 100 µM (inactive) | > 100 µM (inactive) | > 100 µM (inactive) | > 100 µM (inactive) | > 100 µM (inactive) | > 100 µM (inactive) | > 100 µM (inactive) | > 100 µM (inactive) | > 100 µM (inactive) | > 100 µM (inactive) | –
Brc1sc(Br)c2c1[C@H](Br)C[C@@H]2Br | 26.1 µM (inactive) | 22.4 µM (inactive) | 53.6 µM (inactive) | 40.2 µM (inactive) | 24.3 µM (inactive) | – | 57.1 µM (inactive) | 27.5 µM (inactive) | 31.3 µM (inactive) | – | 0.0689 µM (active) | 44.9 µM (inactive) | 36.6 µM (inactive) | 20.7 µM (inactive) | 37.2 µM (inactive) | 19.6 µM (inactive) | 59.8 µM (inactive) | 28 µM (inactive) | 26.9 µM (inactive) | 23.9 µM (inactive)
CC(=O)c1cc(I)c(O)c2ncccc12 | 5.74 µM (inactive) | 2.91 µM (inactive) | 3.11 µM (inactive) | 2.66 µM (inactive) | 3.13 µM (inactive) | 5.47 µM (inactive) | 2.29 µM (inactive) | 4.06 µM (inactive) | 3.3 µM (inactive) | 2.67 µM (inactive) | 3.92 µM (inactive) | > 10 µM (inactive) | 3.97 µM (inactive) | 3.22 µM (inactive) | 2.94 µM (inactive) | – | 4.27 µM (inactive) | 4.09 µM (inactive) | 2.94 µM (inactive) | 3.45 µM (inactive)
CCOC(=O)CC(c1ccccc1)C(C)(C(=O)OCC)C(=O)OCC (stereo unspecified) | 78.2 µM (inactive) | 61.2 µM (inactive) | > 100 µM (inactive) | > 100 µM (inactive) | > 100 µM (inactive) | > 100 µM (inactive) | > 100 µM (inactive) | > 100 µM (inactive) | > 100 µM (inactive) | – | 3.23 µM (inactive) | > 100 µM (inactive) | > 100 µM (inactive) | > 100 µM (inactive) | > 100 µM (inactive) | 33.3 µM (inactive) | > 100 µM (inactive) | > 100 µM (inactive) | > 100 µM (inactive) | > 100 µM (inactive)
Cc1c2c(n(CCc3ccccc3)c1C)N(C)N=C(C#N)S2(=O)=O | > 100 µM (inactive) | > 100 µM (inactive) | – | > 100 µM (inactive) | > 100 µM (inactive) | > 100 µM (inactive) | > 100 µM (inactive) | > 100 µM (inactive) | > 100 µM (inactive) | > 100 µM (inactive) | > 100 µM (inactive) | > 100 µM (inactive) | > 100 µM (inactive) | > 100 µM (inactive) | > 100 µM (inactive) | > 100 µM (inactive) | > 100 µM (inactive) | > 100 µM (inactive) | > 100 µM (inactive) | –
[N-]=[N+]=NCc1cccc(Nc2cc(=O)[nH]c(=O)[nH]2)c1 | 51.2 µM (inactive) | > 100 µM (inactive) | > 100 µM (inactive) | 30.8 µM (inactive) | > 100 µM (inactive) | > 100 µM (inactive) | > 100 µM (inactive) | – | > 100 µM (inactive) | > 100 µM (inactive) | > 100 µM (inactive) | > 100 µM (inactive) | – | > 100 µM (inactive) | > 100 µM (inactive) | > 100 µM (inactive) | > 100 µM (inactive) | > 100 µM (inactive) | > 100 µM (inactive) | > 100 µM (inactive)
Cn1nc(C(=O)N2CC(CCl)c3c2cc(N)c2ccccc32)cc1NC(=O)Nc1cc(C(=O)N2CC(CCl)c3c2cc(N)c2ccccc32)nn1C (stereo unspecified) | < 0.01 µM (active) | < 0.01 µM (active) | 0.163 µM (active) | 0.521 µM (active) | 0.0225 µM (active) | 0.0621 µM (active) | 0.192 µM (active) | < 0.01 µM (active) | 0.107 µM (active) | 3.3 µM (inactive) | 0.0447 µM (active) | 0.948 µM (active) | 0.0212 µM (active) | 0.0275 µM (active) | 0.0818 µM (active) | 14.1 µM (inactive) | 0.3 µM (active) | 0.108 µM (active) | – | 0.21 µM (active)
C(=N\c1ccc2c(c1)Cc1ccccc1-2)/c1ccccn1 | 59.4 µM (inactive) | 24.9 µM (inactive) | – | 27.1 µM (inactive) | 74.8 µM (inactive) | > 100 µM (inactive) | 61.5 µM (inactive) | 60.3 µM (inactive) | 89.3 µM (inactive) | > 10 µM (inactive) | > 100 µM (inactive) | 89.3 µM (inactive) | 63.1 µM (inactive) | 76.4 µM (inactive) | 30.5 µM (inactive) | > 100 µM (inactive) | – | > 100 µM (inactive) | > 100 µM (inactive) | > 100 µM (inactive)
COC(=O)Cc1cc(O)c(C/C=C(\C)CC/C=C(\C)C(O)C(=O)C=C(C)C)cc1O (stereo unspecified) | 16.5 µM (inactive) | 15.6 µM (inactive) | 24.8 µM (inactive) | 30.7 µM (inactive) | 39.4 µM (inactive) | 32 µM (inactive) | 17.1 µM (inactive) | 20.6 µM (inactive) | 19.9 µM (inactive) | 26.7 µM (inactive) | 14.5 µM (inactive) | 20.7 µM (inactive) | 18.7 µM (inactive) | 19.7 µM (inactive) | 17.3 µM (inactive) | 21.6 µM (inactive) | 29.7 µM (inactive) | – | 23.3 µM (inactive) | 17.3 µM (inactive)
CN1COCc2c1ccc1cc3ccc4c(c3nc21)COCN4S(C)(=O)=O | > 100 µM (inactive) | 3.73 µM (inactive) | > 100 µM (inactive) | > 100 µM (inactive) | > 100 µM (inactive) | > 100 µM (inactive) | > 100 µM (inactive) | > 100 µM (inactive) | > 100 µM (inactive) | – | > 100 µM (inactive) | > 100 µM (inactive) | > 100 µM (inactive) | > 100 µM (inactive) | > 100 µM (inactive) | > 100 µM (inactive) | > 100 µM (inactive) | > 100 µM (inactive) | > 100 µM (inactive) | > 100 µM (inactive)
CC(C)C1=CC23CCC4C(C)(C(=O)O)CCCC4(C)C2CC1C1C(=O)N(c2ccc(Cc4ccc(N5C(=O)C6C7CC8C9(C)CCCC(C)(C(=O)O)C9CCC8(C=C7C(C)C)C6C5=O)cc4)cc2)C(=O)C13 (stereo unspecified) | 18.1 µM (inactive) | 5.75 µM (inactive) | 7.06 µM (inactive) | – | 1.93 µM (inactive) | 5.85 µM (inactive) | 12.4 µM (inactive) | – | 11 µM (inactive) | 9.14 µM (inactive) | 13 µM (inactive) | 5.97 µM (inactive) | 3.94 µM (inactive) | 8.81 µM (inactive) | 4.39 µM (inactive) | 17.1 µM (inactive) | – | 10.9 µM (inactive) | – | 16.7 µM (inactive)
C[C@H](Nc1nc(N)c(N=O)c(=O)n1C)C(=O)O | > 10 µM (inactive) | > 10 µM (inactive) | > 10 µM (inactive) | > 10 µM (inactive) | > 10 µM (inactive) | > 10 µM (inactive) | > 10 µM (inactive) | > 10 µM (inactive) | > 10 µM (inactive) | > 10 µM (inactive) | > 10 µM (inactive) | > 10 µM (inactive) | > 10 µM (inactive) | > 10 µM (inactive) | > 10 µM (inactive) | – | > 10 µM (inactive) | > 10 µM (inactive) | > 10 µM (inactive) | > 10 µM (inactive)
CN(C)c1nc2sc3c(c2c(=O)o1)CCCC3 | 26.8 µM (inactive) | 65.2 µM (inactive) | 23.6 µM (inactive) | 73.8 µM (inactive) | 46.3 µM (inactive) | 25.6 µM (inactive) | 23.8 µM (inactive) | 44.5 µM (inactive) | 41.8 µM (inactive) | 35.8 µM (inactive) | 15.5 µM (inactive) | 21.6 µM (inactive) | 32.7 µM (inactive) | – | 44.9 µM (inactive) | 7.46 µM (inactive) | 31.6 µM (inactive) | 71.3 µM (inactive) | 72.8 µM (inactive) | 25.9 µM (inactive)
